{"source": "patent US8551997B2", "about": "“Structural-based inhibitors of the glutathione binding site in aldose reductase, methods of screening therefor and methods of use” (The Board of Regents of the University of Texas System, priority 2004, dated 2013)", "key": {"Caco-2 cells [1]": {"test_system": "Caco-2 cells", "assay": "PGE2 assay in Caco-2 cells", "type": "cell-based, human", "protocol": "Caco-2 cells were plated in 6 well plates at a density of 2×10^5 cells/well. After 24 hours, the medium was replaced with fresh medium containing 0.1% serum with or without, sorbinil (20 μM) followed by treatment with either 10 ng/ml BFGF or PDGF, for another 24 h. HT29 cells were plated in 6 well plate at a density of 2×10^5 cells/well. After 24 hours, medium was replaced with serum-free medium with or without, sorbinil or zopolrestat (20 μM) followed by treatment with either EGF (5 ng/ml) or BFGF (10 ng/ml) for another 24 h. The medium from each cell lines was collected from each well and analyzed for PGE2 by using an Enzyme Immuno Assay kit according to the manufacturer's instructions (Cayman Chemical Co., Inc.).\nBriefly, 50 μl of diluted standard/sample were pipetted into a pre-coated goat polyclonal anti-mouse IgG 96-well plate. Aliquots (50 μl) of a PGE2 monoclonal antibody and PGE2 acetylcholine esterase (AchE) conjugate, (PGE2 tracer) were added to each well and allowed to incubate at 4° C. for 24 h. After incubation, the wells were washed five times with wash buffer containing 0.05% Tween-20, followed by the addition of 200 μl of Ellman's reagent containing acetylthiocholine and 5,5′-dithio-bis-(2-nitrobenzoic acid). Samples were read after 60 min at 412 nm with an ELISA reader. In this procedure the intensity of yellow color, is proportional to the amount of PGE2 tracer bound to the well and is inversely proportional to the amount of free PGE2 present in the well during incubation."}, "Caco-2 cells [2]": {"test_system": "Caco-2 cells", "assay": "Cyclooxygenase activity assay in Caco-2 cells", "type": "cell-based, human", "design": "dose or concentration left out as unconfirmed", "conditions": "24 h", "protocol": "For determination of Cox activity growth-arrested Caco-2 cells were treated with either 10 ng/ml BFGF or PDGF in the absence and presence of sorbinil […] for 24 h. The cells were harvested and homogenized in cold (4° C.) buffer containing 0.1M Tris-Hcl, pH 7.8 and 1 mM EDTA and the activity was measured in 96 well plate according to the manufacturer's (Cayman Chemical Co., Inc.) instructions. Briefly, 10 μl of standard/sample were incubated in the presence of arachidonic acid and substrate, N,N, N,N-tetra methyl-p-phenylenediamine (TMPD) in a total reaction volume of 210 μl. The Cox peroxidase activity was measured colorimetrically by monitoring appearance of oxidized TMPD at 590 nm by using ELISA reader."}, "Caco-2 cells [3]": {"test_system": "Caco-2 cells", "assay": "Membrane-bound PKC activity in Caco-2 cells", "type": "cell-based, human", "protocol": "PKC activity was measured using the Promega-Sigma TECT PKC assay system as described earlier (15). Briefly, aliquots of the reaction mixture (25 mM Tris-Hcl pH 7.5, 1.6 mg/mL phosphatidylserine, 0.16 mg/mL diacylglycerol, and 50 mM MgCl2) were mixed with […] (3,000 Ci/mmol, 10 μCi/μL) and incubated at 30° C. for 10 min. To stop the reaction, 7.5 M guanidine hydrochloride were added and the phosphorylated peptide was separated on binding paper. The extent of phosphorylation was detected by measuring radioactivity retained on the paper."}, "A549 cells": {"test_system": "A549 cells", "assay": "Flowcytometric cell cycle analysis, A549", "type": "cell-based, human", "conditions": "10% FBS", "protocol": "The Caco-2 and A549 cells were grown separately in 6 well plates at a density of approximately 1.5×10^5 cells/well. Growth-arrested Caco-2 cells were pre-incubated with or without sorbinil 20 μM or carrier for 24 h and then stimulated with either 10 ng/ml BFGF or PDGF for another 24 h. After 24 hrs A549 cells were incubated with or without sorbinil at different concentrations for another 24 h.\nThe Caco-2 and A549 cells were then washed with PBS and harvested by trypsinization. Cellular DNA was stained with low and high salt solutions. Briefly, cells were resuspended in 250 μl of solution A, low salt stain, containing polyetheleneglycol (30 mg/ml), propidium iodide (0.05 mg/ml), triton-x-100 (1 μl/ml), sodium citrate 4 mM, RNAse A 10 μg/ml and incubated at 37° C. for 20 min followed by the addition of 250 μl of solution B, high salt stain containing 400 mM NaCl instead of 4 mM sodium citrate in solution A, and incubated overnight at 4° C. Cell cycle analysis was performed with a minimum of 10,000 events per analysis by using FACScan flow cytometer (Becton, Dickinson and Co., San Jose, Calif., USA)."}, "HT29-GFP cells": {"test_system": "HT29-GFP cells", "assay": "HT29-GFP liver metastasis in nude mice", "type": "in vivo, mouse", "conditions": "sorbinil 40 mg/kg body weight in the diet, 34 days", "protocol": "For in vivo metastasis studies, 4- to 6-weeks-old male nude^nu/nu mice were obtained from Harlan Sprague Dawley (Indianapolis, Ind.) and housed in clean, pathogen-free rooms in an environment with controlled temperature (22° C.), humidity and a 12 hours light/dark cycle. The mice were fed standard chow (Formula Chow 5008; Purina Mills, St. Louis, Mo.), given tap water ad libitum and were allowed to acclimate for 1 week. Metastatic HT29-GFP cells were injected intrasplenically by known methods.\nBriefly, mice were anesthetized with halothane, a small left abdominal flank incision was created and the spleen was exteriorized. HT29-GFP cells were harvested using only trypsin and were resuspended as a single-cell suspension in Hanks Balanced Salt Solution, free of Mg^2+ and Ca^2+. HT29-GFP cells (5×10^6 cells/400 μl) were injected into the spleen with a 27-gauge needle. The spleen was returned to the abdomen and the wound was closed in one layer with wound clips. After 24 hrs spleen was removed and animals were randomized into metastatic control and AR inhibitor, sorbinil group. Control group was fed with normal diet and AR inhibitor group fed with sorbinil (40 mg/kg body weight) in the diet. Mice were killed after 35 days, and metastasis in the liver was evaluated by using the Illumatool TLS (Lightools Research, Encinitas, Calif.). […]"}, "mice": {"test_system": "mice", "conditions": "for survival: sorbinil pre-treatment", "quoted_text": "Therefore increasing doses of LPS was administered to determine the dose at which fifty percent lethality occurred (LD50) in the presence or absence of aldose reductase inhibitor (ARI) in order to determine if ARI protected mice for LPS-induced death (FIG. 7D)."}}, "note": "Read-outs that look alike come from different tables or passages of the source.", "data": [{"substance": "(S)-6-fluorospiro[chroman-4,4′-imidazolidine]-2,5′-dione [sorbinil]", "values": [{"measurement": "prevention of PGE2 production induced by BFGF and PDGF", "setting": "Caco-2 cells [1]; sorbinil 20 μM, 10 ng/ml BFGF or PDGF, 24 h", "result": "> 90", "unit": "%"}, {"measurement": "GS-DHN-induced PGE2 production", "setting": "Caco-2 cells [1]; sorbinil 24 h, GS-DHN-ester 24 h", "result": "had no effect"}, {"measurement": "HNE and GS-HNE-induced PGE2 production", "setting": "Caco-2 cells [1]; sorbinil 24 h, aldehydes 24 h", "result": "significantly prevented"}, {"measurement": "constitutive levels of PGE2", "setting": "Caco-2 cells [1]; sorbinil alone", "result": "did not inhibit"}, {"measurement": "BFGF and PDGF-induced Cox activity", "setting": "Caco-2 cells [2]", "result": "abolished"}, {"measurement": "growth factor-induced increase in membrane-bound PKC activity", "setting": "Caco-2 cells [3]", "result": "significantly prevented"}, {"measurement": "total PKC activity", "setting": "Caco-2 cells [3]; sorbinil by itself", "result": "did not alter"}, {"measurement": "percentage of cells in G1", "setting": "A549 cells; 25 μM", "result": 58.79, "unit": "%"}, {"measurement": "percentage of cells in G2", "setting": "A549 cells; 25 μM", "result": 6.06, "unit": "%"}, {"measurement": "percentage of cells in S", "setting": "A549 cells; 25 μM", "result": 35.14, "unit": "%"}, {"measurement": "percentage of cells in G1", "setting": "A549 cells; 50 μM", "result": 59.24, "unit": "%"}, {"measurement": "percentage of cells in G2", "setting": "A549 cells; 50 μM", "result": 5.47, "unit": "%"}, {"measurement": "percentage of cells in S", "setting": "A549 cells; 50 μM", "result": 35.29, "unit": "%"}, {"measurement": "percentage of cells in G1", "setting": "A549 cells; 75 μM", "result": 64.21, "unit": "%"}, {"measurement": "percentage of cells in G2", "setting": "A549 cells; 75 μM", "result": 5.55, "unit": "%"}, {"measurement": "percentage of cells in S", "setting": "A549 cells; 75 μM", "result": 30.24, "unit": "%"}, {"measurement": "percentage of cells in G1", "setting": "A549 cells; 100 μM", "result": 65.55, "unit": "%"}, {"measurement": "percentage of cells in G2", "setting": "A549 cells; 100 μM", "result": 4.8, "unit": "%"}, {"measurement": "percentage of cells in S", "setting": "A549 cells; 100 μM", "result": 29.75, "unit": "%"}, {"measurement": "tumor metastasis to the liver (GFP fluorescence, pixel numbers)", "setting": "HT29-GFP cells", "result": "significant decrease"}, {"measurement": "LD50 for LPS with sorbinil post-treatment", "setting": "mice; sorbinil 2 h after LPS, 48 h survival", "result": 20, "unit": "mg/kg"}, {"measurement": "LD50 for LPS with sorbinil pre-treatment", "setting": "mice; sorbinil 24 h before LPS, 48 h survival", "result": 24, "unit": "mg/kg"}, {"measurement": "survival", "setting": "mice; LPS 14 mg/kg", "result": "approximately 90%"}, {"measurement": "survival", "setting": "mice; LPS 24 mg/kg", "result": "over 60%"}]}]}
